Where a name gives a salt, the structure may show the parent alone.
Target: T1, recombinant human hepatic type GK (GST-hGK2) (Homo sapiens, UniProt P35557)
T1 construct: made in house; host or cells: Escherichia coli BL21
T1 sequence (P35557 1-466 isoform P35557-2): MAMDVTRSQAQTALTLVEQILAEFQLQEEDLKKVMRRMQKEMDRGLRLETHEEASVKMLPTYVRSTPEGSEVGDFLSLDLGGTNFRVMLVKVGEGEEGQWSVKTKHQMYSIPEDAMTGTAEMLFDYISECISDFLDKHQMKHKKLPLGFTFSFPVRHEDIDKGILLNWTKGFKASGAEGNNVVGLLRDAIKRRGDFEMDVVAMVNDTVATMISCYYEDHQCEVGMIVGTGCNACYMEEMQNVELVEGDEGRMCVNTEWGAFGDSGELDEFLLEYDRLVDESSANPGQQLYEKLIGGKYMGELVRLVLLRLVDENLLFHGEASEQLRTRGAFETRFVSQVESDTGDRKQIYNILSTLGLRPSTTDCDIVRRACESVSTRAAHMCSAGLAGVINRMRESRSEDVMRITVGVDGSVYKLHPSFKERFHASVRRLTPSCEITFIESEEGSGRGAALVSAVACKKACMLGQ
Test: Measurement of glucokinase (GK) activation
Type: biochemical
Conditions: 10 min, read-out: GK activation (%)
Experimental: The present test was carried out in accordance with the method described in Science 301: 370-373, 2003 and with partial modification thereof. Hereinafter, the summary is described.
First, the cloning of GK (GenBank No. AK122876) was carried out. 5′-[…]-3′(SEQ ID NO: 1) and 5′-[…]-3′(SEQ ID NO: 2) were used as primers, and pME18S-FL3-Glucokinase isoform 2 was used as a template to carry out PCR. The obtained reaction product was TA-cloned into a pGEM-T easy vector, digested with EcoRI and XhoI, and introduced to the pGEX-5X-1 vector digested in the same manner by ligation. By using this plasmid DNA (pGEX-human Glucokinase 2), a recombinant human hepatic type GK (GST-hGK2) fused with GST (Glutathione S-transferase) was expressed in Escherichia coli (BL21 strain) and purified by Glutathione Sepharose.
The reaction of GK was carried out at 27° C. on a 96-well plate. First, 1 μL of the test compound (final concentration 10 μM) that has been diluted with dimethylsulfoxide (DMSO) was added to 89 μL of an enzyme mixed liquid (all final concentration 25 mM HEPES pH 7.4, 25 mM KCl, 2 mM MgCl2, 1 mM ATP, 0.1% BSA, 1 mM DTT, 1 mM NADP (nicotinamide adenine dinucleotide phosphate), 2.5 U/ml glucose-6-phosphate dehydrogenase, GST-hGK2 adjusted to ΔODCont of about 0.05 to 0.10). Subsequently, 10 μL of a substrate solution (final concentration 5 mM glucose) was added to start the reaction. In order to quantify a final product NADPH, an absorbance at a wavelength of 340 nm was measured, and the GK activation (%) of the test compound was calculated from the increase of absorbance during the first 10 minutes (ΔOD) after initiation of the reaction. GK activation (%)=[(ΔODTest)−(ΔODCont)]/(ΔODCont)×100
ΔODTest: ΔOD at test compound

Structure (SMILES)	activation at 10 µM
CC(=O)c1csc(NC(=O)/C(=C/[C@H]2CCC(=O)C2)c2ccc(S(=O)(=O)C3CC3)c(C3CC3)c2)n1 [Example 44]	389%
O=C1CCC(/C=C(/C(=O)Nc2cnc(C(O)CO)cn2)c2ccc(S(=O)(=O)C3CC3)c(C3CC3)c2)C1 (stereo not shown) [Example 38]	386%

Same assay, conditions: 10 min; test compound final concentration 10 μM; 5 mM glucose; 27° C.; increase of absorbance at 340 nm during first 10 minutes vs DMSO; read-out: GK activation (%)

Structure (SMILES)	activation at 10 µM
CC(C)(O)COc1cnc(NC(=O)[C@H](C[C@H]2CCC(=O)C2)c2ccc(S(=O)(=O)C3CC3)c(C3CC3)c2)cn1 [Example 10, (2R)-2-[3-cyclopropyl-4-(cyclopropylsulfonyl)phenyl]-N-[5-(2-hydroxy-2-methylpropoxy)pyrazin-2-yl]-3-[(1R)-3-oxocyclopentyl]propanamide]	357%
O=C(Nc1ccn(C[C@H](O)CO)n1)/C(=C/C1CCCC1)c1ccc(S(=O)(=O)C2CC2)c(C2CC2)c1 [Example 30]	309%
COc1cnc(NC(=O)[C@H](C[C@H]2CCC(=O)C2)c2ccc(S(=O)(=O)C3CC3)c(C3CC3)c2)cn1 [Example 72]	311%
O=C(Nc1ccn(CC(O)CO)n1)/C(=C/C1CCCC1)c1ccc(S(=O)(=O)C2CC2)c(C2CC2)c1 (stereo in doubt) [Example 3, (2E)-3-cyclopentyl-2-[3-cyclopropyl-4-(cyclopropylsulfonyl)phenyl]-N-{1-[(2S)-2,3-dihydroxypropyl]-1H-pyrazol-3-yl}acrylamide]	328%
Cc1ccc(NC(=O)[C@H](C[C@H]2CCC(=O)C2)c2ccc(S(=O)(=O)C3CC3)c(C3CC3)c2)nc1 [Example 9, (2R)-2-[3-cyclopropyl-4-(cyclopropylsulfonyl)phenyl]-N-(5-methylpyridin-2-yl)-3-[(1R)-3-oxocyclopentyl]propanamide monohydrochloride]	333%
O=C1CC[C@H](/C=C(/C(=O)Nc2ncc(F)s2)c2ccc(S(=O)(=O)C3CC3)c(C3CC3)c2)C1 [Example 47]	297%
CC(=O)c1cnc(NC(=O)[C@H](C[C@H]2CCC(=O)C2)c2ccc(S(=O)(=O)C3CC3)c(C3CC3)c2)cn1 [Example 74]	337%
O=C1CC[C@@H](/C=C(/C(=O)Nc2ncc(Cl)s2)c2ccc(S(=O)(=O)C3CC3)c(C3CC3)c2)C1 [Example 35]	265%
O=C1CC[C@H](/C=C(/C(=O)Nc2nc([C@H](O)CO)cs2)c2ccc(S(=O)(=O)C3CC3)c(C3CC3)c2)C1 [Example 43]	391%
Cn1ccc(NC(=O)[C@H](C[C@H]2CCC(O)C2)c2ccc(S(=O)(=O)C3CC3)c(C3CC3)c2)n1 (stereo partly shown) [Example 85]	257%
CC(=O)c1cnc(NC(=O)/C(=C/[C@H]2CCC(=O)C2)c2ccc(S(=O)(=O)C3CC3)c(C3CC3)c2)s1 [Example 39]	286%
O=C1CC[C@H](/C=C(/C(=O)Nc2nc3ccc(OCCO)nc3s2)c2ccc(S(=O)(=O)C3CC3)c(C3CC3)c2)C1 [Example 7, (2E)-2-[3-cyclopropyl-4-(cyclopropylsulfonyl)phenyl]-N-[5-(2-hydroxyethoxy)[1,3]thiazolo[5,4-b]pyridin-2-yl]-3-[(1S)-3-oxocyclopentyl]acrylamide]	418%
O=C1CC[C@H](/C=C(/C(=O)Nc2nc(CF)cs2)c2ccc(S(=O)(=O)C3CC3)c(C3CC3)c2)C1 [Example 46]	392%
Cc1ccc(NC(=O)[C@H](C[C@H]2CCC(O)C2)c2ccc(S(=O)(=O)C3CC3)c(C3CC3)c2)nc1 (stereo partly shown) [Example 81]	211%
CC(C)(O)c1cnc(NC(=O)[C@H](C[C@H]2CCC(=O)C2)c2ccc(S(=O)(=O)C3CC3)c(C3CC3)c2)cn1 [Example 75]	307%
O=C1CC[C@H](C[C@@H](C(=O)Nc2cnc(CCO)cn2)c2ccc(S(=O)(=O)C3CC3)c(C3CC3)c2)C1 [Example 99]	326%
O=C1CCC(/C=C(/C(=O)Nc2ncc(Cl)s2)c2ccc(S(=O)(=O)C3CC3)c(C3CC3)c2)C1 (stereo not shown) [Example 33]	375%
O=C1CC[C@H](/C=C(/C(=O)Nc2ncc(Cl)s2)c2ccc(S(=O)(=O)C3CC3)c(C3CC3)c2)C1 [Example 41]	362%

Now from value to compound:

activation at 10 µM	Structure (SMILES)
365%	Cn1ccc(NC(=O)/C(=C/C2CCOCC2)c2ccc(S(=O)(=O)C3CC3)c(C3CC3)c2)n1 [Example 2, (2E)-2-[3-cyclopropyl-4-(cyclopropylsulfonyl)phenyl]-N-(1-methyl-1H-pyrazol-3-yl)-3-(tetrahydro-2H-pyran-4-yl)acrylamide]
334%	Cn1ccc(NC(=O)/C(=C/C2CCOC2)c2ccc(S(=O)(=O)C3CC3)c(C3CC3)c2)n1 (stereo not shown) [Example 25]
410%	Cn1ccc(NC(=O)/C(=C/C2CCC(=O)C2)c2ccc(S(=O)(=O)C3CC3)c(C3CC3)c2)n1 (stereo not shown) [Example 32]
397%	O=C1CC[C@H](/C=C(/C(=O)Nc2nccs2)c2ccc(S(=O)(=O)C3CC3)c(C3CC3)c2)C1 [Example 40]
231%	O=C(Nc1ncc(Cl)s1)/C(=C/C1CCOCC1)c1ccc(S(=O)(=O)C2CC2)c(C2CC2)c1 [Example 26]
387%	Cc1cnc(NC(=O)/C(=C/C2CCC(=O)C2)c2ccc(S(=O)(=O)C3CC3)c(C3CC3)c2)cn1 (stereo not shown) [Example 31]
211%	O=C(Nc1ncc(Cl)s1)/C(=C/C1CCOC1)c1ccc(S(=O)(=O)C2CC2)c(C2CC2)c1 (stereo not shown) [Example 27]
260%	Cn1ccc(NC(=O)/C(=C/[C@@H]2CCC(=O)C2)c2ccc(S(=O)(=O)C3CC3)c(C3CC3)c2)n1 [Example 37]
410%	O=C1CC[C@H](/C=C(/C(=O)Nc2ccc(C(=O)O)cn2)c2ccc(S(=O)(=O)C3CC3)c(C3CC3)c2)C1 [Example 5, 6-({(2E)-2-[3-cyclopropyl-4-(cyclopropylsulfonyl)phenyl]-3-[(1S)-3-oxocyclopentyl]prop-2-enoyl}amino)nicotinic acid monohydrochloride]
257%	Cc1cnc(NC(=O)/C(=C/[C@H]2CCC(=O)C2)c2ccc(S(=O)(=O)C3CC3)c(C3CC3)c2)s1 [Example 48]
245%	Cc1cnc(NC(=O)/C(=C/[C@@H]2CCC(=O)C2)c2ccc(S(=O)(=O)C3CC3)c(C3CC3)c2)cn1 [Example 34]
314%	Cc1cnc(NC(=O)/C(=C/C2CCOCC2)c2ccc(S(=O)(=O)C3CC3)c(C3CC3)c2)cn1 [Example 28]
330%	O=C(Nc1ccn(CCCO)n1)/C(=C/C1CCCC1)c1ccc(S(=O)(=O)C2CC2)c(C2CC2)c1 [Example 1, (2E)-3-cyclopentyl-2-[3-cyclopropyl-4-(cyclopropylsulfonyl)phenyl]-N-[1-(3-hydroxypropyl)-1H-pyrazol-3-yl]acrylamide]
345%	Cn1ccc(NC(=O)/C(=C/C2CCCC2)c2ccc(S(=O)(=O)C3CC3)c(C3CC3)c2)n1 [Example 24]
377%	Cc1ccc(NC(=O)/C(=C/[C@H]2CCC(=O)C2)c2ccc(S(=O)(=O)C3CC3)c(C3CC3)c2)nc1 [Example 45]
300%	Cc1cnc(NC(=O)/C(=C/C2CCOC2)c2ccc(S(=O)(=O)C3CC3)c(C3CC3)c2)cn1 (stereo not shown) [Example 29]
336%	O=C1CCC(/C=C(/C(=O)Nc2cnc(CO)cn2)c2ccc(S(=O)(=O)C3CC3)c(C3CC3)c2)C1 (stereo not shown) [Example 6, (2E)-2-[3-cyclopropyl-4-(cyclopropylsulfonyl)phenyl]-N-[5-(hydroxymethyl)pyrazin-2-yl]-3-(3-oxocyclopentyl)acrylamide]

Test system: ICR mouse
Test: Oral glucose tolerance test in normal mouse
Type: in vivo
Conditions: ICR mouse fasted overnight; 10 mg/kg oral, glucose loading after 30 minutes; AUC lowering rate of blood glucose up to 2 hours after glucose loading vs solvent control
Experimental: The test compound was dissolved in a solvent (5% Cremophor, aqueous 5% DMSO solution), and to an ICR mouse after fasting overnight was orally administered 10 mg/kg of the test compound, and after 30 minutes, oral glucose loading was carried out. Immediately before the administration of the test compound, immediately before the glucose loading, and 0.25, 0.5, 1, and 2 hours after the glucose loading, blood was collected and blood glucose levels were measured. An AUC lowering rate (%) of the blood glucose levels from immediately before the glucose loading to 2 hours after the glucose loading with respect to that of the solvent control group was calculated.

Structure (SMILES)	inhibition in vivo at 10 mg/kg
CC(C)(O)COc1cnc(NC(=O)[C@H](C[C@H]2CCC(=O)C2)c2ccc(S(=O)(=O)C3CC3)c(C3CC3)c2)cn1 [Example 10, (2R)-2-[3-cyclopropyl-4-(cyclopropylsulfonyl)phenyl]-N-[5-(2-hydroxy-2-methylpropoxy)pyrazin-2-yl]-3-[(1R)-3-oxocyclopentyl]propanamide]	51%
COc1cnc(NC(=O)[C@H](C[C@H]2CCC(=O)C2)c2ccc(S(=O)(=O)C3CC3)c(C3CC3)c2)cn1 [Example 72]	59%
Cc1ccc(NC(=O)[C@H](C[C@H]2CCC(=O)C2)c2ccc(S(=O)(=O)C3CC3)c(C3CC3)c2)nc1 [Example 9, (2R)-2-[3-cyclopropyl-4-(cyclopropylsulfonyl)phenyl]-N-(5-methylpyridin-2-yl)-3-[(1R)-3-oxocyclopentyl]propanamide monohydrochloride]	52%

From US8329707B2, “Substituted pyrazine compounds” (Astellas Pharma Inc., priority 2008, dated 2012)
